Reference: patent US10807951B2, “mTORC1 modulators” (THE REGENTS OF THE UNIVERSITY OF CALIFORNIA, priority 2017, dated 2020)

Experiments:
LAMTOR5 = LAMTOR5 (Homo sapiens, UniProt O43504); assay: Rhodamine labeling with alkyne probe on purified Lamtor-Rag complexes; type: binding; settings: preliminary experiments
Source text: (§1) FIGS. 8A-8B. (FIG. 8A) Structures of CC 2-11 and CC 1-44. CC 2-11 bears an alkyne group on a separate ring from the cysteine-reactive warhead. The presence of the alkyne group enables us to directly label the modified target protein (e.g. Lamtor5) with biotin or rhodamine groups, either in gels or in complex proteomes. […] Thus, CC 2-11 allows precise mapping of the target cysteines as well as accurate identification of the off-targets.
as §1, with “We also synthesized a” for “FIGS. 8A-8B. (FIG. 8A) Structures of”, “1-44 derivative, named” for “2-11 and”, “2-11, which” for “1-44. CC 2-11”, “warhead (FIG. 8A).” for “warhead.”, “will allow” for “allows”

[1] = in vivo; cited from earlier work

SMILES	direct rhodamine labeling of target protein by alkyne probe (LAMTOR5)	bioavailability [1]
C#Cc1cc(COc2cccc3c2ccn3C(=O)C=C)cc(C(F)(F)F)c1 [CC 2-11]	enables rhodamine labeling of a 28 KDa band corresponding to Lamtor5	–
CO[C@H]1C[C@@H]2CC[C@@H](C)[C@@](O)(O2)C(=O)C(=O)N2CCCC[C@H]2C(=O)O[C@H]([C@H](C)C[C@@H]2CC[C@@H](O)[C@H](OC)C2)CC(=O)[C@H](C)/C=C(\C)[C@@H](O)[C@@H](OC)C(=O)[C@H](C)C[C@H](C)/C=C/C=C/C=C/1C [rapamycin]	–	good
